Source: ChEMBL document CHEMBL3352337, “Scaffold-switching: an exploration of 5,6-fused bicyclic heteroaromatics systems to afford antituberculosis activity akin to the imidazo[1,2-a]pyridine-3-carboxylates” (Bioorg Med Chem Lett, 2014)
Converted amounts (≈) assume the structure as drawn.

The molecules below were run on Mycobacterium tuberculosis variant bovis BCG (assay: Antimycobacterial activity against Mycobacterium bovis BCG ATCC 35734 in 7H12 medium after 6 days and 18 hrs after adding resazurin dye/Tween 80 by Microplate Alamar Blue assay).
Assay type: functional

Compared with `COc1c(N2C[C@@H]3CCCN[C@@H]3C2)c(F)cc2c(=O)c(C(=O)O)cn(C3CC3)c12` [MOXIFLOXACIN], `CO[C@H]1/C=C/O[C@@]2(C)Oc3c(C)c(O)c4c(O)c(c(/C=N/N5CCN(C)CC5)c(O)c4c3C2=O)NC(=O)/C(C)=C\C=C\[C@H](C)[C@H](O)[C@@H](C)[C@@H](O)[C@@H](C)[C@H](OC(C)=O)[C@@H]1C` [RIFAMPIN] is lower in MIC: 0.06 µM (≈ 0.0241 µg/mL) for the first, under 0.004 µM for the second.

Going from `Cc1cnc2nc(C)c(C(=O)NCc3ccccc3)n2c1` to `Cc1ccc2nc(C)c(C(=O)NCc3ccccc3)n2c1`, the MIC falls from 7.8 µM (≈ 2.19 µg/mL) to 0.96 µM (≈ 0.268 µg/mL) (8.1-fold).

`Cc1ccc2c(C(=O)NCc3ccccc3)c(C)[nH]c2c1` and `Cc1ccc2c(C(=O)NCc3ccccc3)n[nH]c2c1` cannot be ordered by MIC: over 128 µM for the first, over 128 µM for the second.

`Cc1ccc2nc(C)c(C(=O)NCc3ccccc3)n2n1` and `Cc1cc(C)n2nc(C(=O)NCc3ccccc3)nc2n1` cannot be ordered by MIC: over 128 µM for the first, over 128 µM for the second.

Going from `NNC(=O)c1ccncc1` [ISONIAZID] to `Cc1ccn2c(C(=O)NCc3ccccc3)nnc2c1`, the MIC rises from 0.41 µM (≈ 0.0562 µg/mL) to over 128 µM.

With `Cc1ccn2c(C)c(C(=O)NCc3ccccc3)nc2c1` the MIC was over 128 µM.
